From patent publication US10357036B2, “Compounds for controlling arthropods” (priority 2015, dated 2019)
Where two headings read alike, the source gives them in different places.

Key:
Spodoptera frugiperda = Spodoptera frugiperda spray test; type: in vivo; conditions: 100 g/ha, after 7 days; for pest or weed control at 100 g/ha: Spodoptera frugiperda, 168 h, read-out: efficacy
Phaedon cochleariae = Phaedon cochleariae spray test; conditions: for pest or weed control at 100 g/ha: Phaedon cochleariae, 168 h, read-out: efficacy; for efficacy: 100 g/ha, after 7 days
[1] = tested on: cattle ticks (Boophilus microplus) Parkhurst strain, SP-resistant; experiment: Boophilus microplus dip test; type: in vivo; conditions: 100 ppm; assessed after 7 days
Experimental: • Test animals: cattle ticks (Boophilus microplus) Parkhurst strain, SP-resistant • Solvent: dimethyl sulfoxide
10 mg of active ingredient are dissolved in 0.5 ml of dimethyl sulfoxide. To produce a suitable formulation, the active ingredient solution is diluted with water to the concentration desired in each case.
This active ingredient formulation is pipetted into tubes. 8-10 engorged adult female cattle ticks (Boophilus microplus) are transferred into a further tube with holes. The tube is immersed into the active ingredient formulation, and all the ticks are completely wetted. After the liquid has run out, the ticks are transferred on filter discs into plastic dishes and stored in a climate-controlled room.
Efficacy is assessed after 7 days by laying of fertile eggs. Eggs which are not visibly fertile are stored in a climate-controlled cabinet until the larvae hatch after about 42 days. An efficacy of 100% means that none of the ticks has laid any fertile eggs; 0% means that all the eggs are fertile.

Ctenocephalides felis [2] = experiment: Ctenocephalides felis oral test; type: in vivo; conditions: 100 ppm in citrated cattle blood; after 2 days
Boophilus microplus = Boophilus microplus injection test; type: in vivo; conditions: 20 μg/animal; assessed after 7 days
Experimental: (§1) • Solvent: dimethyl sulfoxide
1 μl of the active ingredient solution is injected into the abdomen of 5 engorged adult female cattle ticks (Boophilus microplus). The animals are transferred into dishes and kept in a climate-controlled room.

Myzus persicae = Myzus persicae spray test (Chinese cabbage leaf discs); type: in vivo; conditions: 100 g/ha; after 6 days
Experimental: (§2) After 6 days, the efficacy in % is determined.

Tetranychus urticae = Tetranychus urticae spray test, OP-resistant (bean leaf discs); type: in vivo; conditions: 100 g/ha; after 6 days
Experimental: as §2

Rhipicephalus sanguineus = Rhipicephalus sanguineus in vitro contact test with adult brown dog ticks; type: in vivo; conditions: application rate 5 μg/cm^2 (=500 g/ha); after 48 h; dead or moribund ticks
How it was run: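 Efficacy, as % of ticks dead or moribund, was judged 48 h after placing 5-10 adult brown dog ticks in acetone-coated tubes (5 μg/cm^2 from 900 ppm) kept dark at room temperature. Ticks unable to climb away from a 45-50° C hotplate within 5 min counted as affected.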

Musca domestica = Musca domestica test; type: in vivo; conditions: 100 ppm; adult houseflies; after 2 days
Experimental: as §1
To produce a suitable active ingredient formulation, 10 mg of active ingredient are mixed with 0.5 ml of dimethyl sulfoxide, and the concentrate is diluted with water to the desired concentration.
Vessels containing a sponge treated with sugar solution and the active ingredient formulation of the desired concentration are populated with 10 adult houseflies (Musca domestica).

Ctenocephalides felis [3] = experiment: Ctenocephalides felis in vitro contact test with adult cat fleas; type: in vivo; conditions: application rate 5 μg/cm^2 (=500 g/ha); after 48 h; dead or moribund fleas
How it was run: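 After 48 h at room temperature and ambient humidity, adult cat fleas (5–10 per tube) were scored, with motionless or uncoordinated fleas counted dead or moribund. Tubes had been coated with acetone solutions of compound, the 900 ppm solution giving 5 μg/cm². Efficacy: 100% means all fleas dead or moribund, 0% none harmed.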

[4] = reversed-phase C18 HPLC column, logP, HPLC, C18, acetonitrile/water with formic acid (note a)
[5] = reversed-phase C18 HPLC column, logP^a, HPLC-MS method a)

chromatographic logP [4] | chromatographic logP [5] | chromatographic logP (reversed-phase C18 HPLC column, logP^a, HPLC-MS method a), reversed-phase column (C18)) | SMILES | pest or weed control at 100 g/ha (Spodoptera frugiperda) [%] | pest or weed control at 100 g/ha (Phaedon cochleariae) [%] | efficacy (laying of fertile eggs) [1] [%] | efficacy (rate of extermination) (Ctenocephalides felis [2]) [%] | efficacy (laying of fertile eggs) (Boophilus microplus) [%] | efficacy (Myzus persicae) [%] | efficacy (Spodoptera frugiperda) [%] | efficacy (Phaedon cochleariae) [%] | efficacy (Tetranychus urticae) [%] | efficacy (Rhipicephalus sanguineus) [%] | efficacy (rate of extermination) (Musca domestica) [%] | efficacy (Ctenocephalides felis [3]) [%]
5.21 |  |  | CCS(=O)(=O)N(C)Cc1cc(-c2cnn(-c3c(Cl)cc(C(F)(C(F)(F)F)C(F)(F)F)cc3Cl)c2)ccc1Cl [Ic-03, N-(2-chloro-5-{1-[2,6-dichloro-4-(1,1,1,2,3,3,3-heptafluoropropan-2-yl)phenyl]-1H-pyrazol-4-yl}benzyl)-N-methylethanesulfonamide] | 100 | 100 |  |  |  |  |  |  |  |  |  | 
 |  |  | CC(=O)NCc1cc(-c2cnn(-c3c(C)cc(C(F)(C(F)(F)F)C(F)(F)F)cc3Cl)c2)ccc1F [Ia-65] |  |  | 100 | 100 | 100 | 90 | 100 | 100 | 100 | 100 | 100 | 100
 |  |  | CC(=O)NCc1cc(-c2cnn(-c3c(Cl)cc(C(F)(C(F)(F)F)C(F)(F)F)cc3Cl)c2)ccc1C [Ia-90] |  |  | 100 | 100 | 100 | 90 | 100 | 100 | 100 | 100 | 100 | 100
 |  |  | CC(=O)NCc1cc(-c2cnn(-c3c(Cl)cc(C(F)(C(F)(F)F)C(F)(F)F)cc3C(F)(F)F)c2)ccc1C [Ia-79] |  |  | 100 | 100 | 100 | 90 | 100 |  | 100 | 100 | 100 | 100
4.65 |  |  | CCS(=O)(=O)NCc1cc(-c2cnn(-c3c(Cl)cc(C(F)(C(F)(F)F)C(F)(F)F)cc3Cl)c2)ccc1Cl [Ic-02, N-(2-chloro-5-{1-[2,6-dichloro-4-(1,1,1,2,3,3,3-heptafluoropropan-2-yl)phenyl]-1H-pyrazol-4-yl}benzyl)ethanesulfonamide] | 100 | 100 |  |  |  |  |  |  |  |  |  | 
3.65 | 3.65 |  | CCC(=O)NCc1cc(-c2cnn(-c3c(Cl)cc(C(F)(C(F)(F)F)C(F)(F)F)cc3S(C)(=O)=O)c2)ccc1F [Ia-46, N-(5-{1-[2-chloro-4-(1,1,1,2,3,3,3-heptafluoropropan-2-yl)-6-(methylsulfonyl)phenyl]-1H-pyrazol-4-yl}-2-fluorobenzyl)propanamide] |  |  |  |  |  |  |  |  | 70 |  |  | 
3.94 |  |  | CC(=O)NCc1cc(-c2cn(-c3c(Cl)cc(C(F)(C(F)(F)F)C(F)(F)F)cc3Cl)nn2)ccc1Cl [I-T7-01, N-(2-chloro-5-{1-[2,6-dichloro-4-(1,1,1,2,3,3,3-heptafluoropropan-2-yl)phenyl]-1H-1,2,3-triazol-4-yl}benzyl)acetamide] | 100 | 100 |  |  |  |  |  |  | 90 |  |  | 
3.52 | 3.52 |  | CCC(=O)NCc1cc(-c2cnn(-c3c(Cl)cc(C(F)(C(F)(F)F)C(F)(F)F)cc3[S+](C)[O-])c2)ccc1F (stereo not drawn) [Ia-45, N-(5-{1-[2-chloro-4-(1,1,1,2,3,3,3-heptafluoropropan-2-yl)-6-(methylsulfinyl)phenyl]-1H-pyrazol-4-yl}-2-fluorobenzyl)propanamide] |  | 100 |  |  |  |  |  |  |  |  |  | 
 |  |  | CC(=O)NCc1c(F)ccc(-c2cnn(-c3c(Cl)cc(C(F)(C(F)(F)F)C(F)(F)F)cc3C(F)F)c2)c1F [Ia-142] |  |  | 80 | 100 | 100 | 90 | 100 | 100 | 100 | 80 | 100 | 100
4.28 |  | 4.33 | N#CCC(=O)NCc1cc(-c2cnn(-c3c(Cl)cc(C(F)(C(F)(F)F)C(F)(F)F)cc3Br)c2)ccc1Cl [Ia-137, N-(5-{1-[2-bromo-6-chloro-4-(1,1,1,2,3,3,3-heptafluoropropan-2-yl)phenyl]-1H-pyrazol-4-yl}-2-chlorobenzyl)-2-cyanoacetamide] | 100 | 100 |  | 100 | 100 |  |  |  | 100 |  | 100 | 100
 |  |  | CCC(=O)NCc1cc(-c2cnn(-c3c(Cl)cc(C(F)(C(F)(F)F)C(F)(F)F)cc3C(F)F)c2)ccc1F [Ia-23] |  |  | 100 | 100 | 100 | 90 | 100 | 100 | 100 | 100 | 100 | 100
 |  |  | CC(=O)NCc1cc(-c2cnn(-c3c(Cl)cc(C(F)(C(F)(F)F)C(F)(F)F)cc3C(F)F)c2)cnc1Cl [Ia-145] |  |  | 100 | 100 | 100 | 90 | 100 | 100 | 100 |  | 100 | 
 |  |  | CCC(=O)NCc1cc(-c2cnn(-c3c(C)cc(C(F)(C(F)(F)F)C(F)(F)F)cc3Cl)c2)ccc1F [Ia-66] |  |  | 95 | 100 | 100 | 70 | 100 | 100 | 100 | 100 | 100 | 100
 |  |  | CC(=O)NCc1cc(-c2cnn(-c3c(C)cc(C(F)(C(F)(F)F)C(F)(F)F)cc3Cl)c2)ccc1Cl [Ia-84] |  |  | 100 | 100 | 100 | 90 | 100 | 100 | 100 |  | 100 | 
4.84 |  |  | CCC(=O)NC1CCc2ccc(-c3cnn(-c4c(Cl)cc(C(F)(C(F)(F)F)C(F)(F)F)cc4OC(F)(F)F)c3)cc21 (stereo not drawn) [I-Tc-01, N-(6-{1-[2-chloro-4-(1,1,1,2,3,3,3-heptafluoropropan-2-yl)-6-(trifluoromethoxy)phenyl]-1H-pyrazol-4-yl}-2,3-dihydro-1H-inden-1-yl)propanamide] | 100 |  |  | 100 | 100 |  |  |  |  | 100 |  | 
 |  |  | CCC(=O)NCc1cc(-c2cnn(-c3c(C)cc(C(F)(C(F)(F)F)C(F)(F)F)cc3C)c2)ccc1Cl [Ia-93] |  |  | 95 | 100 | 100 |  | 100 | 100 | 100 | 100 | 100 | 100
